Data taken from patent EP4471048A1, “PEPTIDE INHIBITORS OF INTERLEUKIN-23 RECEPTOR” (Zealand Pharma A/S, priority 2023, dated 2024).
*1 amine or outer side, *2 acyl side, *3 side chain or, on linkers, in order; H or OH if unused. Where a SMILES comes first, the peptide text is derived from it. Bridges are numbered along the chain shown (N, C = ends). [ ]: non-standard residue; d: D form. X14 = O=C(CC[C@H](N[*:2])C(=O)[*:3])[*:1]; 2Nal = N[C@@H](Cc1ccc2ccccc2c1)C(=O)O; AEF = NCCOc1ccc(C[C@H](N)C(=O)O)cc1; 3Pal = N[C@@H](Cc1cccnc1)C(=O)O; β3hE = N[C@@H](CCC(=O)O)CC(=O)O; Aad = N[C@@H](CCCC(=O)O)C(=O)O; αMeL = CC(C)C[C@](C)(N)C(=O)O; dOrn = NCCC[C@@H](N)C(=O)O; Dab = NCC[C@H](N)C(=O)O

Biological target: T1, human IL-23R (Homo sapiens, UniProt Q5VWK5)
T1 sequence (Q5VWK5 22-629): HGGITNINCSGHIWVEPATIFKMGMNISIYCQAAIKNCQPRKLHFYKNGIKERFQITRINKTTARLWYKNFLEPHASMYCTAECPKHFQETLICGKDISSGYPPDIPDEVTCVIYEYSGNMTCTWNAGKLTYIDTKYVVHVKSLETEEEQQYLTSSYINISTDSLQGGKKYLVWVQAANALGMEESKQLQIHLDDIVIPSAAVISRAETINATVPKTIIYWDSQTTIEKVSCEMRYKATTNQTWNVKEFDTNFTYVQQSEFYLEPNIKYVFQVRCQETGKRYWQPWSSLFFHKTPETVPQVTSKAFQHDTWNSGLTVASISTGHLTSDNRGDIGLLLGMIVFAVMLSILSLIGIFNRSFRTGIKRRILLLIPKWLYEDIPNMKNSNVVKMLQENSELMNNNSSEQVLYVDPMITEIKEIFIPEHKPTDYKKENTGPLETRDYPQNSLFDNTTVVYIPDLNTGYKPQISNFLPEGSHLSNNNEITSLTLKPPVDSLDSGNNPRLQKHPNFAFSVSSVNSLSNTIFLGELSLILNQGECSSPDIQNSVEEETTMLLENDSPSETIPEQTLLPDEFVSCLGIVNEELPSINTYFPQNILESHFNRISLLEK
Test: biochemical
Settings: for Emax: read-out: % displacement (hIL-23R NIuc)
Description: The compound binding affinity for IL-23R was estimated by the ability of compounds to displace a fluorophore-labelled reference compound from the human IL-23R. The assay principle relies on Bioluminescence Resonance Energy Transfer (BRET) between a fluorophore-labelled reference compound binding to the IL-23R part of a fusion protein consisting of the IL-23R fused to a Nanoluc luciferase enzyme (Nanoluc). The Nanoluc is placed in the N-terminus in close proximity to the binding domain of the ligand. Upon close proximity between the fluorophore of the fluorophore-labelled compound and the Nanoluc of the fusion protein, bioluminescence energy generated from conversion of a Nanoluc substrate, is transferred to the fluorophore resulting in an increase in BRET. In presence of an unlabelled compound, the unlabelled compound displaces the fluorophore-labelled peptide from its binding site resulting in a decrease in BRET. The concentration for which half of the fluorophore-labelled peptide is displaced by the unlabelled compound depends on the affinity of the compound for the IL-23R, and is termed the IC50 concentration.
The plasmid also contained a gene to confer resistance for the antibiotic hygromycin. A cell line stably expressing the Nluc-IL23R fusion protein was generated by transfection of HEK293 cells with the expression plasmid and selected with hygromycin for 3 weeks in Growth medium consisting of DMEM w/ Glutamax-I containing, 10% V/V FBS, 1% V/V P/S, 1 mM Sodium Pyruvate, and 1X NEAA, and 0.3 mg/mL hygromycin. The remaining cells were propagated and considered a stable expressing Nluc-IL23R fusion protein pool clone.
Cells expressing the Nluc-IL23R fusion protein were expanded in Growth medium and membranes prepared by homogenization of a cell pellet from 18 T175 flasks (4 °C in subsequent steps). The cell pellet was lysed Tris 10 mM, 7.5, 1 mM EDTA and protease inhibitors (Complete, Roche) and homogenized using a 15 mL glass-dounce by 50 strokes. The homogenate was spun at spin @1500 rpm for 10 min, the supernatant transferred to SV-34 tubes and spun at 40000g for 20 min at 4 °C to pellet the crude membranes. The supernatant was then removed, the pellet resuspended in 5 mL buffer containing 50 mM HEPES pH 7.4, 5 mM EGTA, and 5 mM MgCl2, and homogenized. Aliquots of the resuspended and homogenized membranes containing the Nluc-IL23R fusion protein were stored at -80 °C until use.
The plate was sealed with light impermeable plate seals, and incubated on an orbital shaker 400 rpm for 2 hours at room temperature. To determine the BRET ratio, the plate seal was removed and 25 µL of the Nanoluc substrate (Promega N1572) diluted 1:500 was added to each well and incubated for 1-2 minutes on an orbital shaker at 400 rpm. […] The BRET ratio was calculated as the fluorescence from the TAMRA/nanoluc bioluminescence.
Compound potency (IC50) and maximal displacement (% displacement) were estimated by computer-aided curve fitting using a 4-parameter logistic (4PL) non-linear model. […]
In this application, the inventors provide the data as IC50 values.

Row | Compound | IC50 [nM] | Emax [%] | % displacement (hIL-23R NIuc) [%]
1 | COc1ccc(C[C@@H]2NC(=O)[C@@H]3CCC(=O)N[C@@H](CCCCNC(=O)CC[C@@H](C(=O)N[C@@H](CCCCNC(=O)CCc4cccnc4)C(N)=O)NC(=O)[C@](C)(CC(C)C)NC(=O)[C@H](Cc4ccc5ccccc5c4)NC2=O)C(=O)N[C@@H]([C@@H](C)O)C(=O)N[C@@H](C(C)C)C(=O)N[C@@H](Cc2c[nH]c4ccccc24)C(=O)N[C@@H](CCC(N)=O)C(=O)N3)cc1 [Compound 52, K(1c)(6c)^†TVWQE(6c)[Y(Me)][2-Nal][2-Me-Leu]E(1c)[K(3-pyridylpropionyl)]-[NH2]] | 120 | 101 | –
2 | CC[C@H](C)[C@@H]1NC(=O)[C@@H]2CCCCNC(=O)CC[C@@H](C(=O)N[C@@H](CCN)C(=O)N[C@@H](Cc3cccnc3)C(N)=O)NC(=O)[C@](C)(C(C)C)NC(=O)[C@H](Cc3ccc4ccccc4c3)NC(=O)[C@H](Cc3ccc(C)cc3)NC(=O)[C@H](CCC(=O)N2)NC(=O)[C@H](CCC(N)=O)NC(=O)[C@H](Cc2c[nH]c3ccccc23)NC(=O)[C@H](C(C)C)NC1=O [Compound 16, K(1c)(6c)^†IVWQE(6c)[F(4-Me)][2-Nal][2-Me-Val]E(1c)[Dab][3-(3-Pyridyl)-Ala]-[NH2]] | 0.099 | 101 | –
3 | CNC(=O)[C@H](Cc1cccnc1)NC(=O)[C@H](CCN)NC(=O)[C@@H]1CCNC(=O)[C@@H]2CCC(=O)N[C@@H](Cc3c[nH]c4ccccc34)C(=O)N[C@@H](CCC(N)=O)C(=O)N[C@@H](CCC(=O)N2)C(=O)N[C@@H](Cc2ccc(OCCN)cc2)C(=O)N[C@@H](Cc2ccc3ccccc3c2)C(=O)N[C@@](C)(CC(C)C)C(=O)N1 [Compound 107, [iso-Glu](1c)^‡(6c)^†WQE(6c)[Y(2-aminoethoxy)][2-Nal][2-Me-Leu][Dab](1c)[Dab][3-(3-Pyridyl)-Ala]-[NHMe]] (WQE[AEF][2Nal][αMeL][Dab][Dab][3Pal]-NHMe; linker N-3-7 via X14) | – | 97 | –
4 | CNC(=O)[C@H](Cc1cccnc1)NC(=O)[C@H](CCN)NC(=O)[C@@H]1CCC(=O)NCCCC[C@@H]2NC(=O)CC[C@H](NC(=O)[C@H](CCC(N)=O)NC(=O)[C@H](Cc3c[nH]c4ccccc34)NC(=O)CCNC2=O)C(=O)N[C@@H](CC2CC2)C(=O)N[C@@H](Cc2ccc3ccccc3c2)C(=O)N[C@@](C)(CC(C)C)C(=O)N1 [Compound 82, K(1c)(6c)^†[3-Aminopropanoyl]WQE(6c)[Cyclopropyl-Ala][2-Nal][2-Me-Leu]E(1c)[Dab][3-(3-Pyridyl)-Ala]-[NHMe]] | 3.7 | 101 | –
5 | CC(C)[C@@H]1NC(=O)[C@H]([C@@H](C)O)NC(=O)[C@@H]2CCCCNC(=O)CC[C@@H]3NC(=O)[C@H](CCNC(=O)[C@H](Cc4cccnc4)NC(=O)[C@H](CCN)NC3=O)NC(=O)[C@H](Cc3ccc4ccccc4c3)NC(=O)[C@H](Cc3ccc(OCCN)cc3)NC(=O)[C@H](CCC(=O)N2)NC(=O)[C@H](CCC(N)=O)NC(=O)[C@H](Cc2c[nH]c3ccccc23)NC1=O [Compound 76, K(1c)(6c)^†TVWQE(6c)[Y(2-aminoethoxy)][2-Nal][Dab](7c)E(1c)[Dab][3-(3-Pyridyl)-Ala](7c)^‡] (KTVWQE[AEF][2Nal][Dab]E[Dab][3Pal]; lactam 1-10, 9-C, N-6) | 3.7 | 92 | –
6 | COc1ccc(C[C@@H]2NC(=O)[C@@H]3CCC(=O)N[C@@H](CCCCNC(=O)CC[C@@H](C(=O)N[C@@H](CCCCNC(=O)Cc4ncc[nH]4)C(N)=O)NC(=O)[C@](C)(CC(C)C)NC(=O)[C@H](Cc4ccc5ccccc5c4)NC2=O)C(=O)N[C@@H]([C@@H](C)O)C(=O)N[C@@H](C(C)C)C(=O)N[C@@H](Cc2c[nH]c4ccccc24)C(=O)N[C@@H](CCC(N)=O)C(=O)N3)cc1 [Compound 58, K(1c)(6c)^†TVWQE(6c)[Y(Me)][2-Nal][2-Me-Leu]E(1c)[K(Imidazoleacetyl)]-[NH2]] | 550 | – | –
7 | CC[C@H](C)[C@@H]1NC(=O)[C@@H]2CCCCNC(=O)CC[C@@H](CC(=O)N[C@@H](Cc3cccnc3)C(=O)NC)NC(=O)[C@](C)(CC(C)C)NC(=O)[C@H](Cc3ccc4ccccc4c3)NC(=O)[C@H](Cc3ccc(OCCN)cc3)NC(=O)[C@H](CCC(=O)N2)NC(=O)[C@H](CCC(N)=O)NC(=O)[C@H](Cc2c[nH]c3ccccc23)NC(=O)[C@H](C(C)C)NC1=O [Compound 61, K(1c)(6c)^†IVWQE(6c)[Y(2-aminoethoxy)][2-Nal][2-Me-Leu][beta-hGlu](cyclo1)[3-(3-Pyridyl)-Ala]-[NHMe]] (KIVWQE[AEF][2Nal][αMeL][β3hE][3Pal]-NHMe; lactam 1-10, N-6) | 11 | 99 | –
8 | CC(C)C[C@]1(C)NC(=O)[C@H](Cc2ccc3ccccc3c2)NC(=O)[C@H](Cc2ccc(OCCN)cc2)NC(=O)[C@@H]2CC(=O)N[C@H](CCCNC(=O)CCC[C@@H](C(=O)N[C@@H](CCN)C(=O)N[C@@H](Cc3cccnc3)C(N)=O)NC1=O)C(=O)N[C@@H]([C@@H](C)O)C(=O)N[C@@H](C(C)C)C(=O)N[C@@H](Cc1c[nH]c3ccccc13)C(=O)N[C@@H](CCC(N)=O)C(=O)N2 [Compound 8, [{d}Orn](1c)(6c)^†TVWQD(6c)[Y(2-aminoethoxy)][2-Nal][2-Me-Leu][hGlu](1c)[Dab][3-(3-Pyridyl)-Ala]-[NH2]] ([dOrn]TVWQD[AEF][2Nal][αMeL][Aad][Dab][3Pal]-NH2; lactam 1-10, N-6) | 0.52 | – | –
9 | CC(C)[C@@H]1NC(=O)[C@H]([C@@H](C)O)NC(=O)[C@@H]2CCCCNC(=O)CC[C@@H]3NC(=O)[C@H](CCCCNC(=O)[C@H](Cc4cccnc4)NC(=O)[C@H](CCN)NC3=O)NC(=O)[C@H](Cc3ccc4ccccc4c3)NC(=O)[C@H](Cc3ccc(OCCN)cc3)NC(=O)[C@H](CCC(=O)N2)NC(=O)[C@H](CCC(N)=O)NC(=O)[C@H](Cc2c[nH]c3ccccc23)NC1=O [Compound 77, K(1c)(6c)^†TVWQE(6c)[Y(2-aminoethoxy)][2-Nal]K(7c)E(1c)[Dab][3-(3-Pyridyl)-Ala](7c)^‡] | 9.9 | 97 | –
10 | CC[C@H](C)[C@@H]1NC(=O)[C@@H]2CCCCNC(=O)CC[C@@H](C(=O)NCCCCc3cccnc3)NC(=O)[C@](C)(C(C)C)NC(=O)[C@H](Cc3ccc4ccccc4c3)NC(=O)[C@H](Cc3ccc(OCCN)cc3)NC(=O)[C@H](CCC(=O)N2)NC(=O)[C@H](CCC(N)=O)NC(=O)[C@H](Cc2c[nH]c3ccccc23)NC(=O)[C@H](C(C)C)NC1=O [Compound 28, K(1c)(6c)^†IVWQE(6c)[Y(2-aminoethoxy)][2-Nal][2-Me-Val]E(1c)-[NH-4-(pyridin-3-yl)butanyl]] | 200 | – | 97
11 | CCCOc1ccc(C[C@@H]2NC(=O)[C@@H]3CCC(=O)N[C@@H](CCCCNC(=O)CC[C@@H](C(=O)NCCCCc4cccnc4)NC(=O)[C@](C)(CC(C)C)NC(=O)[C@H](Cc4ccc5ccccc5c4)NC2=O)C(=O)N[C@@H]([C@@H](C)CC)C(=O)N[C@@H](C(C)C)C(=O)N[C@@H](Cc2c[nH]c4ccccc24)C(=O)N[C@@H](CCC(N)=O)C(=O)N3)cc1 [Compound 32, K(1c)(6c)^†IVWQE(6c)[Y(nPr)][2-Nal][2-Me-Leu]E(1c)-[NH-4-(pyridin-3-yl)butanyl]] | 320 | 99 | –
12 | CNC(=O)[C@H](Cc1cccnc1)NC(=O)[C@H](CCN)NC(=O)[C@@H]1CCC(=O)N[C@H]2CCNC(=O)CC[C@H](NC(=O)[C@H](CCC(N)=O)NC(=O)[C@H](Cc3c[nH]c4ccccc34)NC2=O)C(=O)N[C@@H](Cc2ccc(OCCN)cc2)C(=O)N[C@@H](Cc2ccc3ccccc3c2)C(=O)N[C@@](C)(CC(C)C)C(=O)N1 [Compound 103, [iso-Dab](1c)^†(6c)WQE(6c)[Y(2-aminoethoxy)][2-Nal][2-Me-Leu]E(1c)[Dab][3-(3-Pyridyl)-Ala]-[NHMe]] | 15 | 101 | –
